The record followed here is US9163013B2, “Use of 1H-indazole-3-carboxamide compounds as glycogen synthase kinase 3 beta inhibitors” (AZIENDE CHIMICHE RIUNITE ANGELINI FRANCESCO A.C.R.A.F. …, priority 2012, dated 2015).

In general, inhibition refers to the change of the read-out against control, counted positive when it falls. Usually IC50 stands for the point on the concentration scale where inhibition reaches its midpoint.

SMILES strings stand for the structures. Several values for one entry are separate records, joined by “and”; a condition that tells them apart may be missing. Identical values can stand only once.

T1 sequence (P49841 whole entry): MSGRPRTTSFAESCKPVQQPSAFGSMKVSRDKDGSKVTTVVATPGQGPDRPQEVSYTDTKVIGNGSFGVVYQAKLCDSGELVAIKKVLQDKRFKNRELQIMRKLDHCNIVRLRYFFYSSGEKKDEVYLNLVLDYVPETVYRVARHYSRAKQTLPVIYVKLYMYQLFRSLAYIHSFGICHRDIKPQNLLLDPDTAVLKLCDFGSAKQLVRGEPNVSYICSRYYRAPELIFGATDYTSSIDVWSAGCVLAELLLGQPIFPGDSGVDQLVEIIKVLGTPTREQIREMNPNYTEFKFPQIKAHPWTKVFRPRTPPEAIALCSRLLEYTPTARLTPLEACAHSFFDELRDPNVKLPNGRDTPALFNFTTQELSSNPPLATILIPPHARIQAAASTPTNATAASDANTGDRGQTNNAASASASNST

The target in the first test is T1, human GSK-3β (Homo sapiens (Human), UniProt P49841). Briefly: Activity on human GSK-3β, substrate phosphorylation measured by LANCE technology. The format is biochemical. The note with it: 10 μM, duplicate, human recombinant GSK-3β, 90 minutes at 22° C. As to the method:
Activity on human GSK-3β was assessed using the following methods (according to Meijer et al., Chem. Biol., 2003-10:1255-1266).
In a first screening assay, compounds were tested in duplicate at a concentration of 10 μM.
Human recombinant enzyme GSK-3β was incubated for 90 minutes at 22° C. in the presence of compounds or vehicle in a reaction buffer containing ATP plus 100 nM unphosphorylated specific substrate peptide (Ulight-[…]-amide). Substrate phosphorylation was measured by LANCE technology (PerkinElmer, Conn., USA).
The results, reported in the following Table 4, are expressed as a percent of inhibition of control specific activity obtained in the presence of the test compounds (as % inhibition at 10 μm).
(§1) In a second assay, the same compounds were assayed at five concentrations ranging from 100 μM to 10 nM with ten-fold dilutions in duplicate. Compounds 1 to 7, 9, 11 and 13 to 26 were tested using the same first assay, compounds 8, 10, 12, and 27 to 31 were tested in another assay based on the binding and displacement of AlexaFluor® 647 labeled, ATP-competitive Kinase inhibitor scaffold using LanthaScreen™ TR-FRET technology Eu Kinase assay packet according to manufacturer's instruction (Life Technologies, Italy).
(§2) The IC50 values (concentration causing a half maximal inhibition of control specific activity), reported in table 4, were determined by non-linear regression analysis of the inhibition curves generated with mean replicate values using Hill equation curve fitting.
For orientation: TR-FRET usually uses a lanthanide donor and a delayed reading to cut background.
Turning to `COc1ccc(CCN2CCC(CNC(=O)c3n[nH]c4ccc(OC)cc34)CC2)cc1` [Compound 2, 5-methoxy-N-({1-[2-(4-methoxyphenyl)ethyl]piperidin-4-yl}methyl)-1H-indazole-3-carboxamide], the “% Inhibition [10 μM]” value was determined as 91% and the inhibition at 10 µM was greater than 90%.

The test is the same for the next values; noted with them: LANCE phosphorylation assay; five concentrations 100 μM to 10 nM, duplicate; read-out: IC50.
`COc1ccc2[nH]nc(C(=O)NCC3CCN(Cc4ccc(Cl)cc4Cl)CC3)c2c1` [Compound 3, N-{[1-(2,4-dichlorobenzyl)piperidin-4-yl]methyl}-5-methoxy-1H-indazole-3-carboxamide]: the IC50 was determined as 310 nM.

With `COc1ccc2[nH]nc(C(=O)NCC3CCN(Cc4ccc(C(F)(F)F)cc4)CC3)c2c1` [Compound 4, 5-methoxy-N-({1-[4-(trifluoromethyl)benzyl]piepridin-4-yl}methyl)-1H-indazole-3-carboxamide], the IC50 amounted to 640 nM.

Regarding `COC(=O)c1ccoc1CN1CCC(CNC(=O)c2n[nH]c3ccc(OC)cc23)CC1` [Compound 14, Methyl 2-{[4-({[(5-methoxy-1H-indazol-3-yl)carbonyl]amino}methyl)piperidin-1-yl]methyl}furan-3-carboxylate], the IC50 is 230 nM.

Consider `COc1ccc(-c2ccc3[nH]nc(C(=O)NCC4CCN(Cc5ccc(C(=O)O)o5)CC4)c3c2)cc1` [Compound 18, 5-({4-[({[5-(4-Methoxyphenyl)-1H-indazol-3-yl]carbonyl}amino)methyl]piperidin-1-yl}methyl)furan-2-carboxylic acid hydrate], for which the IC50 amounted to 300 nM.

On to `COc1ccc2[nH]nc(C(=O)NCC3CCN(CCCN4C[C@@H](C)O[C@@H](C)C4)CC3)c2c1` [Compound 26, N-[(1-{3-[(2R,6S)-2,6-dimethylmorpholin-4-yl]propyl}piperidin-4-yl)methyl]-5-methoxy-1H-indazole-3-carboxamide], for which the IC50 was > 1000 nM and 2100 nM.

Consider `O=C(O)c1ccc(CN2CCC(CNC(=O)c3n[nH]c4ccc(Br)cc34)CC2)o1` [Compound 22, 5-{[4-({[(5-Bromo-1H-indazol-3-yl)carbonyl]amino}methyl)piperidin-1-yl]methyl}furan-2-carboxylic acid], for which the IC50 came to 210 nM.

Regarding `COc1ccc2[nH]nc(C(=O)NCC3CCN(Cc4ccc(O)cc4)CC3)c2c1` [Compound 6, N-{[1-(4-hydroxybenzyl)piperidin-4-yl]methyl}-5-methoxy-1H-indazole-3-carboxamide], the IC50 came out at 400 nM.

`COC(=O)c1coc(CN2CCC(CNC(=O)c3n[nH]c4ccc(OC)cc34)CC2)n1` [Compound 9, Methyl 2-{[4-({[(5-methoxy-1H-indazol-3-yl)carbonyl]amino}methyl)piperidin-1-yl]methyl}-1,3-oxazole-4-carboxylate]: the IC50 came out at 210 nM.

In the case of `COc1ccc(-c2ccc3[nH]nc(C(=O)NCC4CCN(Cc5ccc(C(=O)O)o5)CC4)c3c2)cn1` [Compound 17, 5-({4-[({[5-(6-Methoxypyridin-3-yl)-1H-indazol-3-yl]carbonyl}amino)methyl]piperidin-1-yl}methyl)furan-2-carboxylic acid hydrate], the IC50 amounted to 20 nM.

Regarding `COc1ccc(CCN2CCC(CNC(=O)c3n[nH]c4ccc(OC)cc34)CC2)cc1` [Compound 2, 5-methoxy-N-({1-[2-(4-methoxyphenyl)ethyl]piperidin-4-yl}methyl)-1H-indazole-3-carboxamide], the half-inhibitory concentration (IC50) was < 600 nM and 560 nM.

`COc1ncccc1-c1ccc2[nH]nc(C(=O)NCC3CCN(Cc4ccc(C(=O)O)o4)CC3)c2c1` [Compound 16, 5-({4-[({[5-(2-Methoxypyridin-3-yl)-1H-indazol-3-yl]carbonyl}amino)methyl]piperidin-1-yl}methyl)furan-2-carboxylic acid hydrate]: the IC50 was 360 nM.

As to `COc1ccc2[nH]nc(C(=O)NCC3CCN(CCN4C[C@@H](C)O[C@@H](C)C4)CC3)c2c1` [Compound 25, N-[(1-{2-[(2R,6S)-2,6-dimethylmorpholin-4-yl]ethyl}piperidin-4-yl)methyl]-5-methoxy-1H-indazole-3-carboxamide], the IC50 is > 1000 nM and 1400 nM.

With `CCOC(=O)c1nc(CN2CCC(CNC(=O)c3n[nH]c4ccc(OC)cc34)CC2)cs1` [Compound 13, Ethyl 4-{[4-({[(5-methoxy-1H-indazol-3-yl)carbonyl]amino}methyl)piperidin-1-yl]methyl}-1,3-thiazole-2-carboxylate], the IC50 was found to be 950 nM.

As for `CCOC(=O)c1ccc(CN2CCC(CNC(=O)c3n[nH]c4ccc(Br)cc34)CC2)o1` [Compound 15, Ethyl 5-{[4-({[(5-bromo-1H-indazol-3-yl)carbonyl]amino}methyl)piperidin-1-yl]methyl}furan-2-carboxylate], the IC50 was 260 nM.

With `COc1ccc2[nH]nc(C(=O)NCC3CCN(Cc4ccc(OCc5ccccc5)cc4)CC3)c2c1` [Compound 5, N-({1-[4-(benzyloxy)benzyl]piperidin-4-yl}methyl)-5-methoxy-1H-indazole-3-carboxamide], the 50% inhibitory concentration (IC50) came to 350 nM.

Regarding `O=C(O)c1ccc(CN2CCC(CNC(=O)c3n[nH]c4ccc(-c5cccc(F)c5F)cc34)CC2)o1` [Compound 19, 5-({4-[({[5-(2,3-Difluorophenyl)-1H-indazol-3-yl]carbonyl}amino)methyl]piperidin-1-yl}methyl)furan-2-carboxylic acid], the IC50 turned out to be 10 nM.

Turning to `O=C(O)c1ccc(CN2CCC(CNC(=O)c3n[nH]c4ccc(-c5ccccc5F)cc34)CC2)o1` [Compound 20, 5-({4-[({[5-(2-Fluorophenyl)-1H-indazol-3-yl]carbonyl}amino)methyl]piperidin-1-yl}methyl)furan-2-carboxylic acid hydrate], the IC50 is 20 nM.

As for `COC(=O)c1coc(CN2CCC(CNC(=O)c3n[nH]c4ccc(Br)cc34)CC2)n1` [Compound 11, Methyl 2-{[4-({[(5-bromo-1H-indazol-3-yl)carbonyl]amino}methyl)piperidin-1-yl]methyl}-1,3-oxazole-4-carboxylate], the IC50 was found to be 360 nM.

With `CCOC(=O)c1ccc(CN2CCC(CNC(=O)c3n[nH]c4ccc(OC)cc34)CC2)o1` [Compound 23, Ethyl 5-{[4-({[(5-methoxy-1H-indazol-3-yl)carbonyl]amino}methyl)piperidin-1-yl]methyl}furan-2-carboxylate], the IC50 worked out at 330 nM.

For a further test, the target named is T1, human GSK-3β. The test is described as follows: LanthaScreen TR-FRET Eu Kinase binding and displacement assay. The following applies: five concentrations 100 μM to 10 nM, duplicate. On the procedure: as §1, §2
`COc1ccc2[nH]nc(C(=O)NCC3CCN(Cc4ccc(C(=O)O)nc4)CC3)c2c1` [Compound 29, Sodium 5-{[4-({[(5-methoxy-1H-indazol-3-yl)carbonyl]amino}methyl)piperidin-1-yl]methyl}pyridine-2-carboxylate]: the IC50 amounted to 320 nM.

In turn, `COc1ccc2[nH]nc(C(=O)NCC3CCN(CCC4CCCC(C)C4)CC3)c2c1` (stereo not drawn) [Compound 27, 5-methoxy-N-({1-[2-(3-methylcyclohexyl)ethyl]piperidin-4-yl}methyl)-1H-indazole-3-carboxamide] returned an IC50 of 310 nM.

Molecule `COc1ccc2[nH]nc(C(=O)NCC3CCN(Cc4noc(C(N)=O)n4)CC3)c2c1` [Compound 30, N-({1-[(5-carbamoyl-1,2,4-oxadiazol-3-yl)methyl]piperidin-4-yl}methyl)-5-methoxy-1H-indazole-3-carboxamide] had an IC50 of 310 nM.

In turn, `COc1ccc2[nH]nc(C(=O)NCC3CCN(Cc4ccnc(C(=O)O)c4)CC3)c2c1` [Compound 28, 4-{[4-({[(5-methoxy-1H-indazol-3-yl)carbonyl]amino}methyl)piperidin-1-yl]methyl}pyridine-2-carboxylic acid] gave an IC50 of 450 nM.

On to `COc1ccc2[nH]nc(C(=O)NCC3CCN(Cc4nc(C(=O)O)co4)CC3)c2c1` [Compound 10, 2-{[4-({[(5-Methoxy-1H-indazol-3-yl)carbonyl]amino}methyl)piperidin-1-yl]methyl}-1,3-oxazole-4-carboxylic acid hydrate], for which the IC50 turned out to be 310 nM.

On to `COc1ccc2[nH]nc(C(=O)NCC3CCN(Cc4nc(C(=O)O)cs4)CC3)c2c1` [Compound 8, 2-{[4-({[(5-Methoxy-1H-indazol-3-yl)carbonyl]amino}methyl)piperidin-1-yl]methyl}-1,3-thiazole-4-carboxylic acid], for which the IC50 was 170 nM.
